Among the data in the supplement of paper PMC10307832 are relative viability values, retold here.

Common to all, as to assay: relative viability (nuclei count vs DMSO), 5 days (fraction); higher = more cells survive
Compound in assay [1]: CCOC(=O)CCNc1cc(N2CCc3ccccc3CC2)nc(-c2ccccn2)n1 [GSK-J4] + C[C@]1(O)C[C@@H](c2nc(-c3ccc4ccc(-c5ccccc5)nc4c3)c3c(N)nccn32)C1 [Linsitinib] (partner 1 µM)
In short, it runs like this:
(§1)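 Relative viability divides the nuclei count in treated wells by that in vehicle wells. Lung cancer cell lines were seeded in 1536-well plates, dosed by pin tool the next day, and fixed and stained after 5 days in one step with final 0.05% Triton X-100, 1% formaldehyde and 1 ug/ml Hoechst. Dosing was a single drug or a fixed anchor-drug dose plus five library-drug doses (not always all listed) in √10 steps, and values are medians of duplicate plates imaged at 4×.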

Compound in assay [2]: CCOC(=O)CCNc1cc(N2CCc3ccccc3CC2)nc(-c2ccccn2)n1 [GSK-J4] + Cc1nc(Nc2ncc(C(=O)Nc3c(C)cccc3Cl)s2)cc(N2CCN(CCO)CC2)n1 [Dasatinib] (partner 0.075 µM)
In short, it runs like this:
as §1

Compound in assay [3]: CCOC(=O)CCNc1cc(N2CCc3ccccc3CC2)nc(-c2ccccn2)n1 [GSK-J4] + Nc1nc2[nH]cc(CCc3ccc(C(=O)N[C@@H](CCC(=O)O)C(=O)O)cc3)c2c(=O)[nH]1 [Pemetrexed] (partner 0.2 µM)
In short, it runs like this:
as §1

Compound in assay [4]: CN1CCC(CC1)OC2=CC(=C(C=C2)NC3=NC=C4C(=N3)N(C(=O)N4C)C5CCCC5)OC [AZ3146] + CS(=O)(=O)CCNCc1ccc(-c2ccc3ncnc(Nc4ccc(OCc5cccc(F)c5)c(Cl)c4)c3c2)o1 [Lapatinib] (partner 2 µM)
In outline: as §1

Take LU99A: the relative viability in assay [1] (first compound 0.5 µM) stood at 0.515; in assay [1] (first compound 1.581 µM) it was 0.53; in assay [1] (first compound 5 µM) it was 0.565; in assay [1] (first compound 15.81 µM), 0.404; in assay [1] (first compound 50 µM) it was 0.457; in assay [2] (first compound 0.5 µM), 0.441. Also, the relative viability in assay [2] (first compound 1.581 µM) turned out to be 0.582; in assay [2] (first compound 15.81 µM), 0.457; in assay [2] (first compound 50 µM), 0.374; in assay [3] (first compound 0.5 µM), 0.16; in assay [3] (first compound 1.581 µM), 0.158; in assay [3] (first compound 15.81 µM), 0.178. Besides, the relative viability in assay [3] (first compound 50 µM) was found to be 0.166; in assay [4] (first compound 0.08 µM), 0.864; in assay [4] (first compound 0.253 µM), 1.15; in assay [4] (first compound 0.8 µM), 1.06; in assay [4] (first compound 2.53 µM) it was 0.954; in assay [4] (first compound 8 µM), 0.995.
Turning to H3255, the relative viability in assay [1] (first compound 0.5 µM) was 0.902; in assay [1] (first compound 1.581 µM), 0.952; in assay [1] (first compound 5 µM), 0.838; in assay [1] (first compound 15.81 µM) it was 0.84; in assay [1] (first compound 50 µM), 0.707; in assay [2] (first compound 0.5 µM) it was 0.361. The relative viability was found to be 0.364 in assay [2] (first compound 1.581 µM); 0.416 in assay [2] (first compound 5 µM); 0.369 in assay [2] (first compound 15.81 µM); 0.386 in assay [2] (first compound 50 µM); 0.649 in assay [3] (first compound 0.5 µM); 0.551 in assay [3] (first compound 1.581 µM). Moreover, the relative viability in assay [3] (first compound 5 µM) came to 0.491; in assay [3] (first compound 15.81 µM), 0.503; in assay [3] (first compound 50 µM), 0.502; in assay [4] (first compound 0.08 µM) it was 0.23; in assay [4] (first compound 0.253 µM), 0.216; in assay [4] (first compound 0.8 µM), 0.186. In addition, the relative viability is 0.267 in assay [4] (first compound 2.53 µM) and 0.245 in assay [4] (first compound 8 µM).
With NCI-H1993, the relative viability amounted to 0.694 in assay [1] (first compound 0.5 µM); 0.752 in assay [1] (first compound 1.581 µM); 0.814 in assay [1] (first compound 5 µM); 0.779 in assay [1] (first compound 15.81 µM); 0.785 in assay [1] (first compound 50 µM); 0.613 in assay [2] (first compound 0.5 µM). The relative viability in assay [2] (first compound 1.581 µM) is 0.649; in assay [2] (first compound 5 µM), 0.716; in assay [2] (first compound 15.81 µM) it was 0.52; in assay [2] (first compound 50 µM), 0.43; in assay [3] (first compound 0.5 µM), 0.699; in assay [3] (first compound 1.581 µM), 0.585. The relative viability was determined as 0.575 in assay [3] (first compound 5 µM); 0.562 in assay [3] (first compound 15.81 µM); 0.476 in assay [3] (first compound 50 µM); 0.896 in assay [4] (first compound 0.08 µM); 0.788 in assay [4] (first compound 0.253 µM); 0.724 in assay [4] (first compound 0.8 µM). In addition, the relative viability in assay [4] (first compound 2.53 µM) was 0.853; in assay [4] (first compound 8 µM) it was 0.779.
Consider NCI-H322M, for which the relative viability in assay [1] (first compound 0.5 µM) was 0.858; in assay [1] (first compound 1.581 µM), 0.929; in assay [1] (first compound 5 µM), 0.955; in assay [1] (first compound 15.81 µM), 0.828; in assay [1] (first compound 50 µM) it was 0.825; in assay [2] (first compound 0.5 µM), 0.269. Further, the relative viability in assay [2] (first compound 1.581 µM) was found to be 0.19; in assay [2] (first compound 5 µM) it was 0.237; in assay [2] (first compound 15.81 µM), 0.23; in assay [2] (first compound 50 µM) it was 0.278; in assay [3] (first compound 0.5 µM) it was 0.638; in assay [3] (first compound 1.581 µM), 0.588. Besides, the relative viability in assay [3] (first compound 5 µM) amounted to 0.672; in assay [3] (first compound 15.81 µM), 0.394; in assay [3] (first compound 50 µM) it was 0.682; in assay [4] (first compound 0.08 µM), 0.72; in assay [4] (first compound 0.253 µM), 0.593; in assay [4] (first compound 0.8 µM), 0.609. Besides, the relative viability in assay [4] (first compound 2.53 µM) is 0.608; in assay [4] (first compound 8 µM), 0.584.
For the cell line NCI-H460, the relative viability is 0.821 in assay [1] (first compound 0.5 µM); 0.584 in assay [1] (first compound 1.581 µM); 0.836 in assay [1] (first compound 5 µM); 0.691 in assay [1] (first compound 15.81 µM); 0.581 in assay [1] (first compound 50 µM); 0.524 in assay [2] (first compound 0.5 µM). Moreover, the relative viability in assay [2] (first compound 1.581 µM) is 0.445; in assay [2] (first compound 5 µM) it was 0.471; in assay [2] (first compound 15.81 µM), 0.37; in assay [2] (first compound 50 µM) it was 0.363; in assay [3] (first compound 0.5 µM), 0.0749; in assay [3] (first compound 5 µM) it was 0.0554. Also, the relative viability in assay [3] (first compound 15.81 µM) is 0.0643; in assay [3] (first compound 50 µM), 0.0656; in assay [4] (first compound 0.08 µM), 0.877; in assay [4] (first compound 0.253 µM), 1.11; in assay [4] (first compound 0.8 µM) it was 0.937; in assay [4] (first compound 2.53 µM), 0.817. Also, in assay [4] (first compound 8 µM), the relative viability was determined as 0.656.
